Results from patent publication US20070179120A1, “HYDROXYL COMPOUNDS AND COMPOSITIONS FOR CHOLESTEROL MANAGEMENT AND RELATED USES” (ESPERION THERAPEUTICS, INC., priority 2003, published 2007).
Like-named read-outs stand apart in the source and are kept apart here.

What was measured:
[1] = test system: primary rat hepatocytes; test: Inhibition of lipid synthesis ([1-14C]-acetate incorporation) in primary rat hepatocytes; assay type: cell-based; details: Hepatocyte, 4 hours incubation, 0-300 μM
Protocol: Compounds were tested for inhibition of lipid synthesis in primary cultures of rat hepatocytes. Male Sprague-Dawley rats were anesthetized with intraperitoneal injection of sodium pentobarbital (80 mg/kg). Rat hepatocytes were isolated essentially as described by the method of Seglen (Seglen, P. O. Hepatocyte suspensions and cultures as tools in experimental carcinogenesis. J. Toxicol. Environ. Health 1979, 5, 551-560). Hepatocytes were suspended in Dulbecco's Modified Eagles Medium containing 25 mM D-glucose, 14 mM HEPES, 5 mM L-glutamine, 5 mM leucine, 5 mM alanine, 10 mM lactate, 1 mM pyruvate, 0.2% bovine serum albumin, 17.4 mM non-essential amino acids, 20% fetal bovine serum, 100 nM insulin and 20 μg/mL gentamycin) and plated at a density of 1.5×10^5 cells/cm^2 on collagen-coated 96-well plates. Four hours after plating, media was replaced with the same media without serum. Cells were grown overnight to allow formation of monolayer cultures. Lipid synthesis incubation conditions were initially assessed to ensure the linearity of [1-^14C]-acetate incorporation into hepatocyte lipids for up to 4 hours. Hepatocyte lipid synthesis inhibitory activity was assessed during incubations in the presence of 0.25 μCi [1-^14C]-acetate/well (final radiospecific activity in assay is 1 Ci/mol) and 0, 1, 3, 10, 30, 100 or 300 μM of compounds for 4 hours. At the end of the 4-hour incubation period, medium was discarded and cells were washed twice with ice-cold phosphate buffered saline and stored frozen prior to analysis. To determine total lipid synthesis, 170 μl of MicroScint-E® and 50 μl water was added to each well to extract and partition the lipid soluble products to the upper organic phase containing the scintillant. Lipid radioactivity was assessed by scintillation spectroscopy in a Packard TopCount NXT.

[2] = test system: obese female Zucker rats; test: Oral daily treatment of obese female Zucker rats for fourteen days: serum lipids, glycemic control indicators, body weight; assay type: in vivo, rat; details: for change in vivo at 100 mg/kg/day / change in vivo at 100 mg/kg: Rattus norvegicus, 336 h; for change in vivo at 100 mg/kg/day: 100 mg/kg/day oral gavage, read-out: % wt. gain; for change in vivo at 100 mg/kg / HDL-C/non-HDL-C: 100 mg/kg/day oral; for HDL-C/non-HDL-C: serum ratio
Protocol: In a number of different experiments, illustrative compounds of the invention are administered daily at a dose of up to 100 mg/kg to chow fed obese female Zucker rats for fourteen days in the morning by oral gavage in 1.5% carboxymethylcellulose/0.2% Tween 20 or 20% ethanol/80% polyethylene glycol (dosing vehicles). Animals are weighed daily. Animals are allowed free access to rodent chow and water throughout the study except on days of blood sampling where food is restricted for six hours prior to blood sampling. Blood glucose is determined after the 6 hour fast in the afternoon without anesthesia from a tail vein. Serum is also prepared from pretreatment blood samples subsequently obtained from the orbital venous plexus (with O2/CO2 anesthesia) and following the fourteenth dose at sacrifice from the heart following O2/CO2 anesthesia. Serums are assayed for lipoprotein cholesterol profiles, triglycerides, total cholesterol, Non-HDL cholesterol, HDL cholesterol, the ratio of HDL cholesterol to that of Non-HDL cholesterol, insulin, non-esterified fatty acids, and beta-hydroxy butyric acid. The percent body weight gain and the ratio of liver to body weight is also determined. These are shown as absolute values or as a percent change of the pretreatment values in Table 1 for compounds A-K and in Table 2 for compounds L-M. [drawing 111]

[3] = test system: female Syrian hamsters; test: Chow-fed female Syrian hamsters, 3 weeks of oral dosing: lipoprotein cholesterol, triglycerides, glucose, insulin, body weight, bile acids; assay type: in vivo; details: chow-fed hamster, 100 mg/kg/day oral, 3 weeks of dosing
Protocol: Ten week old female Syrian hamsters were acclimated for 21 days to a shortened light and dark cycle (10 hours of light/14 hours of darkness). During the acclimation and drug intervention period animals were allowed free access to rodent chow (Purina 5001) and water except for a 6 hour period prior to blood sampling. Following the 21 day acclimation period ESP 55015 was administered daily for three weeks, between 8 10 AM, at a dose of 100 mg/Kg by oral gavage in a dosing vehicle consisting of 20% Ethanol/80% Polyethylene glycol 200 [v/v]. Prior to and in the afternoon following the 13th and 21st doses blood samples were collected, between 2 PM and 4 PM, by administering O2/CO2 anesthesia and bleeding from the orbital venous plexus. All blood samples were processed for separation of serum. Serum samples were subsequently assayed for total cholesterol, total cholesterol lipoprotein profiles (HDL cholesterol, LDL cholesterol and VLDL cholesterol), the ratio of HDL cholesterol, LDL cholesterol and VLDL cholesterol), the ratio of HDL cholesterol to non HDL cholesterol (LDL C, VLDL C) and triglycerides (Table 4). Percent body weight gain and ratio of liver weight to body weight were also determined.

[4] = blood glucose after 6 hour fast, read-out: Glucose (Percent of Pre-treatment)
[5] = serum beta-hydroxy butyric acid, read-out: BHA (Percent of Pre-treatment)
[6] = serum non-esterified fatty acids, read-out: NEFA (Percent of Pre-treatment)
[7] = serum total cholesterol, read-out: TC (Percent of Pre-treatment)
[8] = serum triglycerides, read-out: TG (Percent of Pre-treatment)
[9] = serum, read-out: HDL-C (Percent of Pre-treatment)
[10] = serum, read-out: Insulin (Percent of Pre-treatment)
[11] = serum, read-out: Non-HDL-C (Percent of Pre-treatment)

Row | SMILES | IC50 [1] [µM] | change in vivo at 100 mg/kg/day [2] [%] | change in vivo at 100 mg/kg [2, 4] [%] | change in vivo at 100 mg/kg [2, 5] [%] | change in vivo at 100 mg/kg [2, 6] [%] | change in vivo at 100 mg/kg [2, 7] [%] | change in vivo at 100 mg/kg [2, 8] [%] | change in vivo at 100 mg/kg [2, 9] [%] | change in vivo at 100 mg/kg [2, 10] [%] | change in vivo at 100 mg/kg [2, 11] [%] | HDL-C/non-HDL-C [2] | melting point [°C] | also measured
1 | CC(C)(CCCCC(O)CCCCC(C)(C)C(=O)O)C(=O)O [A] | 3.4 | 12 | -2 | 231 | -11 | 14 | -59 | 50 | 43 | -41 | 5 | – | –
2 | CC(C)(CCCCCC(O)CCCCCC(C)(C)C(=O)O)C(=O)O [C] | 1 | 3 | -11 | 171 | -42 | 105 | -90 | 169 | -57 | -80 | 40 | – | –
3 | CC(C)(CO)CCCCC(O)CCCCC(C)(C)CO [Compound 6.1, 2,2,12,12-Tetramethyltridecane-1,7,13-triol] | – | – | – | – | – | – | – | – | – | – | – | 72 to 74 | –
4 | CC(C)(CO)CCCCC(CCCCC(C)(C)CO)C(C)(C)O [Compound 6.12, 7-(1-Hydroxy-1-methylethyl)-2,2,12,12-tetramethyltridecane-1,13-diol] | – | – | – | – | – | – | – | – | – | – | – | 72 to 74 | –
5 | CC(C)(CO)CCCCCC(O)CCCCCC(C)(C)CO [Compound 6.17, 2,2,14,14-Tetramethylpentadecane-1,8,15-triol] | – | – | – | – | – | – | – | – | – | – | – | 71 to 75 | –
6 | CC(C)(CO)CCCCCC(O)CCCCC(C)(C)CO (stereo not shown) [Compound 6.27, 2,2,13,13-Tetramethyltetradecane-1,7,14-triol] | – | – | – | – | – | – | – | – | – | – | – | 79 to 80 | –
7 | CC(C)(CO)CCCCCCC(O)CCCCCCC(C)(C)CO [Compound 6.32, 2,2,16,16-Tetramethylheptadecane-1,9,17-triol] | – | – | – | – | – | – | – | – | – | – | – | 75 to 77 | –
8 | CC(C)(CCCCCC(O)CCCCCC(C)(C)CC(=O)c1cccnc1)COC(=O)c1cccnc1 (stereo not shown) [Compound 6.37, Nicotinic acid 8-hydroxy-2,2,14,14-tetramethyl-15-nicotinoylpentadecyl ester] | – | – | – | – | – | – | – | – | – | – | – | 65 to 67 | –
9 | CC(C)(CO)Cc1cccc(C(O)c2cccc(CC(C)(C)CO)c2)c1 [Compound 6.46, 3-(3-{Hydroxy-[3-(3-hydroxy-2,2-dimethylpropyl)-phenyl]-methyl}-phenyl)-2,2-dimethylpropan-1-ol] | – | – | – | – | – | – | – | – | – | – | – | 98 to 99 | –
10 | CC(C)(CO)CCCCCC(O)CCCCCC(C)(C)CO [Compound B] | 5.1 | 1 | -3 | 199 | -28 | 105 | -87 | 237 | -52 | -81 | 35 | – | Bile Acids [3]: 67,108 ± 17,529 ng/ml; Body wt. [3]: 146 ± 2 gm; Glucose [3]: 122 ± 3; Insulin [3]: 2.4 ± 0.7; HDL-C ([3]; serum): 63 ± 4 mg/dL; LDL-C ([3]; serum): 44 ± 4 mg/dL; TG ([3]; serum): 128 ± 37 mg/dL; VLDL-C ([3]; serum): 4 ± 2 mg/dL
11 | CC(C)(CO)CCCCC(O)CCCCC(C)(C)C(=O)O (stereo not shown) [Compound I] | 2.3 | – | – | – | – | – | – | – | – | – | – | – | –
12 | CC(C)(CO)CCCCCC(O)CCCCC(C)(C)CO (stereo not shown) [D] | 1.6 | – | – | – | – | – | – | – | – | – | – | – | –
13 | CC(C)(CCCCC(O)CCCC(C)(C)C(=O)O)C(=O)O (stereo not shown) [E] | 8.3 | – | – | – | – | – | – | – | – | – | – | – | –
14 | CC(C)(CO)CCCCC(O)CCCCC(C)(C)CO [F] | 6.4 | 3 | 10 | – | -43 | 53 | -46 | 222 | -4 | -15 | 2 | – | –
15 | CC(C)(CO)CCCCCCC(O)CCCCCCC(C)(C)CO [G] | 7.8 | 9 | 14 | 163 | -62 | 21 | -80 | 68 | -38 | -68 | 12 | – | –
16 | CC(C)(CO)CCCCCCCC(O)CCCCCCCC(C)(C)CO [H] | 2.6 | 9 | 19 | 97 | -30 | 61 | -36 | 115 | -30 | -5 | 3 | – | –
17 | CC(C)(CO)CCCCC(CO)CCCCC(C)(C)CO [J] | 17 | 12 | 21 | 183 | -32 | -6 | -23 | -2 | -11 | -12 | 2 | – | –
18 | CC(C)(CCCCC(CO)CCCCC(C)(C)C(=O)O)C(=O)O [K] | 14 | 10 | 3 | 253 | -32 | 35 | -45 | 62 | 41 | -38 | 9 | – | –
19 | CCCCC(O)CCCCCC(C)(C)C(=O)O (stereo not shown) [L] | – | 12 | 13 | 88 | -27 | -3 | -37 | -2 | -37 | -11 | 4 | – | –
